Molecules are shown by their SMILES.

As a reminder, the ED50 is the midpoint of the dose-response relation.

Series [1] concerns Mus musculus. The experiment in a line: Hypnotic activity in ip dosed CFLP mouse after 30 mins by rotary drum test. It counts as functional. The note with it: 0.5 h.
Series [2] relates to Mus musculus. The series can be described thus: […] activity in po dosed CFLP mouse assessed as inhibition of benzoquinone-induced writhing. It counts as functional. Background: In writhing tests, fewer writhes than in controls are read as antinociception.
In series [3] the test system is Mus musculus. The experiment in a line: Anticonvulsant activity in ip dosed CFLP mouse assessed as inhibition of maximum electroshock-induced seizure. It is filed as functional.
Series [4] relates to Mus musculus. The experiment in a line: Anticonvulsant activity in ip dosed CFLP mouse assessed as inhibition of pentylenetetrazole-induced seizure. It is filed as functional.
In series [5] the test system is Mus musculus. The experiment in a line: Hypnotic activity in ip dosed CFLP mouse assessed as loss of righting reflex. It counts as functional.
Series [6] is described as follows: Chemical stability of the compound assessed as methaqualone/sulfur/disulfide formation. It is filed as physicochemical.

For `Br.Cc1ccccc1-n1c(CSC(=N)N)nc2ccccc2c1=O`, the ED50 with Mus musculus [1] is 35 mg/kg; with Mus musculus [2], more than 50 mg/kg; in the series with Mus musculus [3], 65 mg/kg; in the series on Mus musculus [4], 28 mg/kg; in the series with Mus musculus [5], 56 mg/kg.
In the same order, the values of `Br.Cc1ccccc1-n1c(CSC2=NCCN2)nc2ccccc2c1=O` are 42 mg/kg, more than 50 mg/kg, 44 mg/kg, 24 mg/kg and 60 mg/kg.
On to `Br.Cc1c(Cl)cccc1-n1c(CSC2=NCCN2)nc2ccccc2c1=O`, for which the ED50 with Mus musculus [1] is more than 25 mg/kg; with Mus musculus [3], more than 25 mg/kg; in the series with Mus musculus [4], 25 mg/kg; in the series with Mus musculus [5] it was 80 mg/kg.
On to `Br.O=c1c2ccccc2nc(CSC2=NCCN2)n1-c1ccccc1`, for which the ED50 with Mus musculus [1] was more than 50 mg/kg; in the series with Mus musculus [2], 50 mg/kg; with Mus musculus [3] it was 50 mg/kg; in the series with Mus musculus [4] it was more than 50 mg/kg; with Mus musculus [5] it was 200 mg/kg.
With `CC(=O)OCc1nc2ccccc2c(=O)n1-c1ccccc1C`, the ED50 was 155 mg/kg with Mus musculus [1]; 200 mg/kg in the series on Mus musculus [2]; 120 mg/kg with Mus musculus [3]; 150 mg/kg in the series on Mus musculus [4]; more than 400 mg/kg with Mus musculus [5].
Consider `Cc1ccccc1-n1c(CBr)nc2ccccc2c1=O`, for which the ED50 was more than 200 mg/kg with Mus musculus [1], more than 150 mg/kg in the series on Mus musculus [2], more than 200 mg/kg in the series with Mus musculus [3] and more than 200 mg/kg with Mus musculus [5].
In the case of `CCCSCc1nc2ccccc2c(=O)n1-c1ccccc1C`, the ED50 is 100 mg/kg in the series with Mus musculus [1]; more than 200 mg/kg in the series with Mus musculus [2]; 160 mg/kg with Mus musculus [3]; 70 mg/kg in the series on Mus musculus [4]; more than 800 mg/kg in the series with Mus musculus [5].
For `Br.N=C(N)SCc1nc2ccccc2c(=O)n1-c1ccccc1Cl`, the ED50 was determined as 90 mg/kg with Mus musculus [2] and 200 mg/kg in the series with Mus musculus [5].
Regarding `Br.C/N=C(\NC)SCc1nc2ccccc2c(=O)n1-c1ccccc1`, the ED50 was more than 50 mg/kg in the series on Mus musculus [1]; 200 mg/kg with Mus musculus [2]; 40 mg/kg with Mus musculus [3]; 50 mg/kg in the series with Mus musculus [4]; more than 400 mg/kg in the series on Mus musculus [5].
In the same order, the values of `Cc1ccccc1-n1c(C(F)(F)F)nc2ccccc2c1=O` are more than 200 mg/kg, more than 200 mg/kg, more than 200 mg/kg, more than 200 mg/kg and more than 400 mg/kg.
For `Cc1ccccc1-n1c(C)nc2ccccc2c1=O` [METHAQUALONE], in that order: 30 mg/kg, 36 mg/kg, 48 mg/kg, 14 mg/kg and 96 mg/kg.
In the same order, the values of `Br.C/N=C(\NC)SCc1nc2ccccc2c(=O)n1-c1ccccc1F` are 54 mg/kg, more than 50 mg/kg, 45 mg/kg, more than 50 mg/kg and more than 400 mg/kg.
In the case of `Cc1ccccc1-n1c(CSC(N)=O)nc2ccccc2c1=O.Cl`, the ED50 turned out to be 19 mg/kg in the series with Mus musculus [1], 200 mg/kg in the series with Mus musculus [2], 34 mg/kg in the series with Mus musculus [3] and 35 mg/kg in the series with Mus musculus [5].
In the same order, the values of `Br.Cc1c(Cl)cccc1-n1c(CSC(=N)N)nc2ccccc2c1=O` are 57 mg/kg, 200 mg/kg, 42 mg/kg and 400 mg/kg.
Regarding `Br.N=C(N)SCc1nc2ccccc2c(=O)n1-c1ccccc1F`, the ED50 with Mus musculus [1] was determined as 43 mg/kg; in the series on Mus musculus [2] it was 100 mg/kg; in the series on Mus musculus [3], 38 mg/kg; with Mus musculus [4] it was 75 mg/kg; with Mus musculus [5], 400 mg/kg.
In the same order, the values of `Br.C/N=C(\NC)SCc1nc2ccccc2c(=O)n1-c1ccccc1C` are 32 mg/kg, 51 mg/kg, 25 mg/kg, 23 mg/kg and 100 mg/kg.
For `CCCCOCc1nc2ccccc2c(=O)n1-c1ccccc1C`, the 50% effective dose (ED50) with Mus musculus [1] was 88 mg/kg; in the series with Mus musculus [2], more than 200 mg/kg; in the series on Mus musculus [3], 120 mg/kg; in the series on Mus musculus [5] it was more than 400 mg/kg.
Regarding `Cc1ccccc1-n1c(CSC(N)=O)nc2ccccc2c1=O`, the ED50 was 200 mg/kg in the series with Mus musculus [1]; more than 200 mg/kg in the series on Mus musculus [2]; 120 mg/kg in the series on Mus musculus [3]; 56 mg/kg in the series with Mus musculus [4]; 400 mg/kg with Mus musculus [5].
Take `Cc1ccccc1-n1c(CI)nc2ccccc2c1=O`: the ED50 with Mus musculus [1] is more than 200 mg/kg; with Mus musculus [3], more than 200 mg/kg; in the series with Mus musculus [5], more than 400 mg/kg.
As for `Cc1ccccc1-n1c(CSS(=O)(=O)O)nc2ccccc2c1=O`, the ED50 in the series on Mus musculus [1] is 44 mg/kg; in the series on Mus musculus [2], more than 200 mg/kg; in the series with Mus musculus [3] it was 82 mg/kg; in the series with Mus musculus [4] it was 39 mg/kg; with Mus musculus [5], 150 mg/kg.
For `Br.Cc1ccccc1-n1c(CS/C(N)=N/N)nc2ccccc2c1=O`, the ED50 with Mus musculus [1] was found to be 15.5 mg/kg; in the series with Mus musculus [3], 35 mg/kg; in the series on Mus musculus [4], 23 mg/kg; with Mus musculus [5], 100 mg/kg.
With `Br.C/N=C(\NC)SCc1nc2ccccc2c(=O)n1-c1cc([N+](=O)[O-])ccc1C`, the ED50 in the series on Mus musculus [1] was more than 10 mg/kg; in the series on Mus musculus [2], more than 10 mg/kg; with Mus musculus [3], more than 10 mg/kg; with Mus musculus [4], more than 10 mg/kg; in the series on Mus musculus [5] it was more than 50 mg/kg.
As to `Br.O=c1c2ccccc2nc(CSC2=NCCN2)n1-c1ccccc1F`, the ED50 with Mus musculus [1] stood at 32 mg/kg; in the series on Mus musculus [2], 90 mg/kg; in the series with Mus musculus [3], 37.5 mg/kg; with Mus musculus [4] it was 100 mg/kg; in the series on Mus musculus [5], 200 mg/kg.
In the same order, the values of `COCc1nc2ccccc2c(=O)n1-c1ccccc1C` are 22 mg/kg, 100 mg/kg, 26 mg/kg, 100 mg/kg and 300 mg/kg.
With `Cc1ccccc1-n1c(CF)nc2ccccc2c1=O.Cl`, the ED50 in the series on Mus musculus [1] amounted to 18 mg/kg; in the series with Mus musculus [3], 14.5 mg/kg; in the series on Mus musculus [4], 16 mg/kg; with Mus musculus [5], 75 mg/kg.
As to `CCCOCc1nc2ccccc2c(=O)n1-c1ccccc1C`, the ED50 is more than 200 mg/kg in the series on Mus musculus [2], more than 200 mg/kg with Mus musculus [3], 150 mg/kg with Mus musculus [4] and more than 400 mg/kg in the series on Mus musculus [5].
For the compound `Br.Cc1ccc([N+](=O)[O-])cc1-n1c(CSC(=N)N)nc2ccccc2c1=O`, the ED50 is more than 200 mg/kg in the series on Mus musculus [2] and more than 400 mg/kg in the series on Mus musculus [5].
For the compound `Cc1ccccc1-n1c(CO)nc2ccccc2c1=O`, the 50% effective dose (ED50) in the series on Mus musculus [1] was 56 mg/kg; in the series on Mus musculus [2], more than 200 mg/kg; in the series on Mus musculus [3] it was 135 mg/kg; with Mus musculus [4], 70 mg/kg; with Mus musculus [5] it was more than 400 mg/kg.
Take `Br.O=c1c2ccccc2nc(CSC2=NCCN2)n1-c1ccccc1Cl`: the ED50 in the series on Mus musculus [1] came to 12 mg/kg; in the series on Mus musculus [3] it was 18 mg/kg; with Mus musculus [4] it was 25 mg/kg; in the series on Mus musculus [5], 50 mg/kg.
For `Br.N=C(N)SCc1nc2ccccc2c(=O)n1-c1ccccc1`, in that order: 42 mg/kg, 53 mg/kg, more than 50 mg/kg and 200 mg/kg.
Regarding `Br.Cc1ccccc1-n1c(CSC2=NCCCN2)nc2ccccc2c1=O`, the ED50 with Mus musculus [1] is 39 mg/kg; in the series on Mus musculus [2], 170 mg/kg; in the series with Mus musculus [3], 50 mg/kg; in the series on Mus musculus [5], 200 mg/kg.
`COc1ccccc1-n1c(CS)nc2ccccc2c1=O`: the Stability entry in series [6] was “Unstable”.
As for `Br.C/N=C(/NC)SCc1nc2ccccc2c(=O)n1-c1ccccc1Cl`, the ED50 with Mus musculus [1] stood at 27 mg/kg; in the series on Mus musculus [2] it was 200 mg/kg; in the series on Mus musculus [3], 30 mg/kg; in the series on Mus musculus [4], 40 mg/kg; in the series on Mus musculus [5], 150 mg/kg.
With `CCOCc1nc2ccccc2c(=O)n1-c1ccccc1C`, the ED50 was 27 mg/kg in the series on Mus musculus [1], more than 200 mg/kg in the series on Mus musculus [2], 64 mg/kg with Mus musculus [3] and 300 mg/kg with Mus musculus [5].
As for `Cc1ccccc1-n1c(COC(=O)CCC(=O)O)nc2ccccc2c1=O`, the ED50 in the series with Mus musculus [1] was more than 200 mg/kg; in the series on Mus musculus [2], more than 200 mg/kg; in the series on Mus musculus [3], more than 200 mg/kg; in the series with Mus musculus [4], 150 mg/kg; with Mus musculus [5], more than 400 mg/kg.
With `Br.CCCC/N=C(\NCCCC)SCc1nc2ccccc2c(=O)n1-c1ccccc1C`, the ED50 in the series with Mus musculus [1] is 40 mg/kg; with Mus musculus [2], 200 mg/kg; in the series with Mus musculus [3], more than 40 mg/kg; with Mus musculus [4] it was more than 40 mg/kg; with Mus musculus [5], more than 100 mg/kg.
Consider `Br.Cc1ccc([N+](=O)[O-])cc1-n1c(CSC2=NCCN2)nc2ccccc2c1=O`, for which the ED50 was 86 mg/kg in the series with Mus musculus [1]; more than 200 mg/kg in the series on Mus musculus [2]; 100 mg/kg in the series on Mus musculus [3]; 150 mg/kg in the series with Mus musculus [4]; more than 400 mg/kg in the series on Mus musculus [5].
As for `Cc1ccccc1-n1c(C(F)F)nc2ccccc2c1=O`, the ED50 in the series with Mus musculus [1] is 100 mg/kg; in the series with Mus musculus [3] it was more than 100 mg/kg; with Mus musculus [4], 50 mg/kg; in the series with Mus musculus [5], more than 400 mg/kg.
On to `Br.O=c1c2ccccc2nc(CSC2=NCCN2)n1-c1ccc(Cl)cc1`, for which the ED50 in the series on Mus musculus [1] was 47 mg/kg; with Mus musculus [2], more than 75 mg/kg; in the series on Mus musculus [3], 35 mg/kg; in the series on Mus musculus [4], 37.5 mg/kg; in the series with Mus musculus [5], more than 200 mg/kg.
For `Cc1ccccc1-n1c(C(Br)Br)nc2ccccc2c1=O`, in that order: more than 200 mg/kg, more than 400 mg/kg, more than 200 mg/kg, more than 200 mg/kg and more than 800 mg/kg.

Source of the values: ChEMBL document CHEMBL3244418, “Synthesis and central nervous system activity of quinazolones related to 2-methyl-3-(o-tolyl)-4(3H)-quinazolone (methaqualone)” (J Med Chem, 1977).
